# Biological target: T1, Protein tyrosine phosphatase 1B (PTP1B) (Homo sapiens, UniProt P18031)
# T1 construct: gene PTPN1
# T1 sequence (P18031 1-435): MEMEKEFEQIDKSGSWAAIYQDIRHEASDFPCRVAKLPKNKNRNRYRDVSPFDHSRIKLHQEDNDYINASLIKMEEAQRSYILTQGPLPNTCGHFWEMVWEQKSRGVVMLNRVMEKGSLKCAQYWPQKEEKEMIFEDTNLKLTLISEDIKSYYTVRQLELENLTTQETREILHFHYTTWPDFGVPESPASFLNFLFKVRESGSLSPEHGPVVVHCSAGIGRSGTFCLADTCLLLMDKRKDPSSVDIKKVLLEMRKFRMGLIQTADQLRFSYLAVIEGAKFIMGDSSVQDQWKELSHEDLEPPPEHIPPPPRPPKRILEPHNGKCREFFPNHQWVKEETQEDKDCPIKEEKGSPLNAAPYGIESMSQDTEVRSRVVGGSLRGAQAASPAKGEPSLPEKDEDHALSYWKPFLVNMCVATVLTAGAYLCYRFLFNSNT
# Experiment: pNPP hydrolysis assay ([…] nm) with human recombinant PTP1B; Dixon and Lineweaver-Burk kinetics
# Type: biochemical
smiles,measurement,value
"CC(C)=CC[C@@H](O)C1=CC(=O)c2c(O)ccc(O)c2C1=O [Shikonin, 5,8-dihydroxy-2-[(1R)-1-hydroxy-4-methylpent-3-enyl] naphthalene-1,4-dione]",IC50,15.5 µM

# Reference: paper PMC8271486, “Assessment of Antidiabetic Activity of the Shikonin by Allosteric Inhibition of Protein-Tyrosine Phosphatase 1B (PTP1B) Using State of Art: An In Silico and In Vitro Tactics” (Molecules, 2021)
